In patent US11952330B2, “Antibiotic ammonium compounds and methods for the treatment of bacterial infections” (priority 2019, dated 2024):
Where two headings read alike, the source gives them in different places.

Columns and labels:
Type in all cases: cell-based
[1] = test system: A. baumannii; assay: MIC by broth dilution in presence of 5% human plasma (esterases), A. baumannii; settings: for Δ MIC A. baumannii + human plasma: broth supplemented with 5% human plasma (esterases) vs no plasma; for stability in the presence of enzymes that are found in the gut, compared with otilonium bromide (11), in words: 5% human plasma
Protocol: The antibacterial efficacy of ammonium compounds in the presence of human plasma was assessed. Minimum inhibitory concentrations (MICs) were determined by broth dilution method. Dilutions of each compound, ranging from 1 μg/mL to 256 μg/mL (final concentrations) were prepared in Mueller-Hinton broth. For the plasma containing samples, compound dilutions were made in Mueller-Hinton broth and supplemented with 5% (final %) human plasma (esterases). Compound dilutions were added to wells of a 96-well plate, with the concentration of the compound increasing 2-fold by row. Each well contained 5×10^5 CFU/mL of target bacterium in a total volume of 100 μL. Plates were incubated overnight at 37° C. The following day, plates were evaluated for a visual change in growth to determine the MIC. The concentration value corresponding to the first row that no longer had visible bacterial growth, as evaluated by turbidity in the wells, was recorded as the MIC. MIC values were representative of at least biological duplicates, each made up of technical triplicates.

[2] = test system: human red blood cell; assay: In vitro hemolysis assay; settings: for % hemolysis at 16 μg/ml / % hemolysis at 32 μg/ml: human RBCs, 37° C., 1 hour; for hemolysis as compared to otilonium bromide (11), in words: 16 and 32 μg/mL
Protocol: The hemolytic potential of ammonium compounds were assessed in vitro. A human red blood cell solution (RBC) was prepared by washing 400 μL of fresh RBCs twice with 7 mL of 1×PBS (pH 7.4) by centrifugation at 4° C., 2500 rpm for 10 minutes. The precipitates were then resuspended in 4 mL of 1×PBS. Hemolysis testing was performed by mixing 500 μL of freshly prepared test compound solutions at a final concentration of both 16 μg/mL and 32 μg/mL in 1×PBS with 400 μL of the washed human RBCs. Two control samples were prepared by separately mixing 400 μL of washed RBCs with 500 μL of 1×PBS (negative control) and 1% Triton X-100 (w/v). After incubation in a water bath at 37° C. for 1 hour, the samples were centrifuged at 2500 rpm for 10 minutes. 300 μL of the supernatant were collected for measurement in a 96-well plate. The release of hemoglobin was assessed by measuring the absorbance of the samples at 540 nm using 1×PBS as the blank. Hemolysis percent was calculated using Equation 1: […]

[3] = test system: A. baumannii; assay: MIC by broth dilution, A. baumannii; settings: Acinetobacter baumannii, Mueller-Hinton broth
Outline: (§1)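 Broth dilution in Mueller-Hinton broth with 2-fold compound steps over 1–256 μg/mL (final) and 5×10^5 CFU/mL inoculum, incubated overnight at 37 °C. The MIC is the lowest concentration without visible turbidity, from at least biological duplicates of technical triplicates. A parallel series was supplemented with 5% (final) human plasma.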

[4] = test system: S. aureus; assay: MIC by broth dilution, S. aureus; settings: for MIC: Staphylococcus aureus, Mueller-Hinton broth; for selectivity for Gram positive microbes over Gram negative microbes, in words: S. aureus vs A. baumannii
Outline: as §1

[5] = no plasma, Table 2, read-out: MIC (μg/ml) A. baumannii
[6] = overnight 37° C., Table 1, read-out: MIC (μg/mL) A. baumannii
[7] = no plasma, Table 2, read-out: MIC (μg/ml) S. aureus
[8] = overnight 37° C., Table 1, read-out: MIC (μg/mL) S. aureus

SMILES	MIC [3, 6]	MIC [4, 8]	also measured
CCCCCCCCOc1ccccc1C(=O)Nc1ccc(C(=O)OCC[N+](C)(C)C)cc1.[Br-] [Compound 11, N,N,N-Trimethyl-2-((4-(2-(octyloxy)benzamido)benzoyl)oxy)ethan-1-aminium bromide]	3 to 30 µg/mL	3 to 30 µg/mL	Δ MIC A. baumannii + human plasma [1]: 8X; % hemolysis at 16 μg/ml [2]: 7%; % hemolysis at 32 μg/ml [2]: 92%; MIC [3, 5]: 3 to 30 µg/mL; MIC [4, 7]: 3 to 30 µg/mL
CCCCCCCCOc1cccc(OCCCCCCCC)c1C(=O)Nc1ccc(C(=O)OCC[N+](C)(CC)CC)cc1.[Br-] [Compound 17, 2-((4-(2,6-Bis(octyloxy)benzamido)benzoyl)oxy)-N,N-diethyl-N-methylethan-1-aminium bromide]	> 30 µg/mL	3 to 30 µg/mL	stability in the presence of enzymes that are found in the gut, compared with otilonium bromide (11), in words [1]: better stability than otilonium bromide; % hemolysis at 16 μg/ml [2]: 59%; % hemolysis at 32 μg/ml [2]: 90%; hemolysis as compared to otilonium bromide (11), in words [2]: reduced hemolysis as compared to otilonium bromide; MIC [3, 5]: > 30 µg/mL; antimicrobial activity against Gram positive S. aureus relative to otilonium bromide, in words [4]: comparable or better than the activity of otilonium bromide; selectivity for Gram positive microbes over Gram negative microbes, in words [4]: virtually complete selectivity for Gram positive microbes; MIC [4, 7]: < 3 µg/mL
CCCCCCOc1ccccc1C(=O)Nc1ccc(C(=O)OCC[N+](CC)(CC)CCCCC)cc1.[Br-] [Compound 68, N,N-Diethyl-N-(2-((4-(2-(hexyloxy)benzamido)benzoyl)oxy)ethyl)pentan-1-aminium bromide]	3 to 30 µg/mL	< 3 µg/mL	stability in the presence of enzymes that are found in the gut, compared with otilonium bromide (11), in words [1]: better stability than otilonium bromide; Δ MIC A. baumannii + human plasma [1]: 8X; % hemolysis at 16 μg/ml [2]: 2%; % hemolysis at 32 μg/ml [2]: 5%; hemolysis as compared to otilonium bromide (11), in words [2]: reduced hemolysis as compared to otilonium bromide; reduction in hemolysis as compared to otilonium bromide (11) ([2]; at 32 μg/mL): 94%; MIC [3, 5]: 3 to 30 µg/mL; antimicrobial activity against Gram positive S. aureus relative to otilonium bromide, in words [4]: comparable or better than the activity of otilonium bromide; selectivity for Gram positive microbes over Gram negative microbes, in words [4]: improved selective for Gram positive microbes over Gram negative microbes; MIC [4, 7]: < 3 µg/mL
CCCCCCCOc1ccccc1C(=O)Nc1ccc(C(=O)NC2CC[N+](C)(CC)CC2)cc1.[Br-] (stereo not drawn) [Compound 81, 1-Ethyl-4-(4-(2-(heptyloxy)benzamido)benzamido)-1-methylpiperidin-1-ium bromide]	> 30 µg/mL	> 30 µg/mL	–
CCCCCCCCOc1ccccc1C(=O)Nc1ccc(S(=O)(=O)NCC[N+](CC)(CC)CCC)cc1.[Br-] [Compound 82, N,N-Diethyl-N-(2-((4-(2-(octyloxy)benzamido)phenyl)sulfonamido)ethyl)propan-1-aminium bromide]	3 to 30 µg/mL	3 to 30 µg/mL	–
CCCCCCCOc1ccccc1C(=O)Nc1ccc(S(=O)(=O)NCC[N+](CC)(CC)CCC)cc1.[Br-] [Compound 83, N,N-Diethyl-N-(2-((4-(2-(heptyloxy)benzamido)phenyl)sulfonamido)ethyl)propan-1-aminium bromide]	> 30 µg/mL	3 to 30 µg/mL	–
CCCCCCCCOc1ccccc1C(=O)Nc1ccc(C(=O)NC2CC[N+](CC)(CCC)CC2)cc1.[Br-] (stereo not drawn) [Compound 84, 1-Ethyl-4-(4-(2-(octyloxy)benzamido)benzamido)-1-propylpiperidin-1-ium bromide]	> 30 µg/mL	3 to 30 µg/mL	–
CCCCCCCOc1ccccc1C(=O)Nc1ccc(C(=O)NC2CC[N+](CC)(CCC)CC2)cc1.[Br-] (stereo not drawn) [Compound 85, 1-Ethyl-4-(4-(2-(heptyloxy)benzamido)benzamido)-1-propylpiperidin-1-ium bromide]	> 30 µg/mL	3 to 30 µg/mL	–
CCCCCCCCOc1ccc(F)cc1C(=O)Nc1ccc(C(=O)OCC[N+](C)(CC)CC)cc1.[Br-] [Compound 86, N,N-Diethyl-2-((4-(5-fluoro-2-(octyloxy)benzamido)benzoyl)oxy)-N-methylethan-1-aminium bromide]	3 to 30 µg/mL	< 3 µg/mL	–
CCCCCCCCOc1cc(F)ccc1C(=O)Nc1ccc(C(=O)OCC[N+](C)(CC)CC)cc1.[Br-] [Compound 87, N,N-Diethyl-2-((4-(4-fluoro-2-(octyloxy)benzamido)benzoyl)oxy)-N-methylethan-1-aminium bromide]	> 30 µg/mL	3 to 30 µg/mL	–
CCCCCCCCOc1cccc(F)c1C(=O)Nc1ccc(C(=O)OCC[N+](C)(CC)CC)cc1.[Br-] [Compound 88, N,N-Diethyl-2-((4-(2-fluoro-6-(octyloxy)benzamido)benzoyl)oxy)-N-methylethan-1-aminium bromide]	> 30 µg/mL	3 to 30 µg/mL	–
CCCCCCCCOc1c(F)cccc1C(=O)Nc1ccc(C(=O)OCC[N+](C)(CC)CC)cc1.[Br-] [Compound 89, N,N-Diethyl-2-((4-(3-fluoro-2-(octyloxy)benzamido)benzoyl)oxy)-N-methylethan-1-aminium bromide]	> 30 µg/mL	3 to 30 µg/mL	–
CCCCCCCCOc1ccccc1C(=O)Nc1ccc(C(=O)OCC[N+](C)(CC)CC)c(F)c1.[Br-] [Compound 90, N,N-Diethyl-2-((2-fluoro-4-(2-(octyloxy)benzamido)benzoyl)oxy)-N-methylethan-1-aminium bromide]	3 to 30 µg/mL	3 to 30 µg/mL	–
CCCCCCCCOc1ccccc1C(=O)Nc1ccc(C(=O)OCC[N+](C)(CC)CC)cc1F.[Br-] [Compound 91, N,N-Diethyl-2-((3-fluoro-4-(2-(octyloxy)benzamido)benzoyl)oxy)-N-methylethan-1-aminium bromide]	> 30 µg/mL	3 to 30 µg/mL	–
CCCCCCOc1ccccc1C(=O)Nc1ccc(S(=O)(=O)NCC[N+](CC)(CC)CCCCC)cc1.[Br-] [Compound 92, N,N-Diethyl-N-(2-((4-(2-(hexyloxy)benzamido)phenyl)sulfonamido)ethyl)pentan-1-aminium bromide]	> 30 µg/mL	3 to 30 µg/mL	–
CCCCCCCOc1ccccc1C(=O)Nc1ccc(S(=O)(=O)NCC[N+](CC)(CC)CCCC)cc1.[Br-] [Compound 93, N,N-Diethyl-N-(2-((4-(2-(heptyloxy)benzamido)phenyl)sulfonamido)ethyl)butan-1-aminium bromide]	> 30 µg/mL	3 to 30 µg/mL	–
CCCCCCOc1cc(F)ccc1C(=O)Nc1ccc(S(=O)(=O)NCC[N+](CC)(CC)CCCCC)cc1.[Br-] [Compound 94, N,N-Diethyl-N-(2-((4-(4-fluoro-2-(hexyloxy)benzamido)phenyl)sulfonamido)-ethyl)pentan-1-aminium bromide]	3 to 30 µg/mL	3 to 30 µg/mL	–
CCCC(CCC)Oc1ccccc1C(=O)Nc1ccc(C(=O)OCC[N+](C)(CC)CC)cc1.[Br-] [Compound 96, N,N-Diethyl-2-((4-(2-(heptan-4-yloxy)benzamido)benzoyl)oxy)-N-methylethan-1-aminium bromide]	> 30 µg/mL	3 to 30 µg/mL	–
CC[N+](C)(CC)CCOC(=O)c1ccc(NC(=O)c2ccccc2OCCCCC(C)C)cc1.[Br-] [Compound 97, N,N-Diethyl-N-methyl-2-((4-(2-((5-methylhexyl)oxy)benzamido)benzoyl)oxy)-ethan-1-aminium bromide]	> 30 µg/mL	3 to 30 µg/mL	–
CC[N+](C)(CC)CCOC(=O)c1ccc(NC(=O)c2ccccc2OC2CCC(C)CC2)cc1.[Br-] (stereo not drawn) [Compound 98, N,N-Diethyl-N-methyl-2-((4-(2-(((1s,4s)-4-methylcyclohexyl)oxy)benzamido)-benzoyl)oxy)ethan-1-aminium bromide]	> 30 µg/mL	> 30 µg/mL	–
